Experimental findings from ChEMBL document CHEMBL4742397, “Compositions and methods for regulating body weight and metabolic syndromes” (2018) are described below.

In data set [1] the test system is 3T3-L1. Briefly: Inhibition of lipid accumulation in mouse 3T3-L1 cells at 5 to 20 uM incubated for 6 days by Oil Red O staining based spectrometric assay. It counts as functional, cell-based. The note with it: dose 5-20 µM, time 6.0 day.
Data set [2] relates to 3T3-L1. In words: Inhibition of lipid synthesis related gene expression in mouse 3T3-L1 cells assessed as reduction in FAS expression at 20 uM incubated for 6 days by real-time PCR analysis. It counts as functional, cell-based. The note with it: time 6.0 day.
Data set [3] deals with 3T3-L1. Briefly: Inhibition of CE accumulation in mouse 3T3-L1 cells. In kind it is functional, cell-based.
Data set [4] deals with 3T3-L1. Briefly: Increase in 125 kDa inactive precursor form of SREBPl protein in mouse 3T3-L1 cells at 20 uM incubated for 6 days by Western blot analysis. It counts as functional, cell-based. The note with it: time 6.0 day. Background: Immunoblotting shows a protein as a band on a membrane.
In data set [5] the test system is Mus musculus. Briefly: Anti-diabetic activity in high fat diet-fed C57BL/6J mouse model of obesity and diabetes assessed as improvement in glucose tolerance at 20 mg/kg, ip dosed daily for 2 weeks. It counts as functional, organism-based.
Data set [6] has as its system Mus musculus. Briefly: Anti-diabetic activity in high fat diet-fed C57BL/6J mouse model of obesity and diabetes assessed as improvement in blood lipid profile by measuring decrease in free cholesterol at 20 mg/kg, ip dosed daily for 2 weeks. In kind it is functional, organism-based.
Data set [7] concerns Mus musculus. In words: Anti-diabetic activity in high fat diet-fed C57BL/6J mouse model of obesity and diabetes assessed as reduction in total body weight gain at 20 mg/kg, ip dosed daily for 2 weeks. It counts as functional. Details: scale not given: the % may be the effect or the level left.
Data set [8] is described as follows: Hepato-toxicity in high fat diet-fed C57BL/6J mouse model of obesity and diabetes assessed as effect on ALT activity at 20 mg/kg, ip dosed daily for 2 weeks. In kind it is organism-based. The note with it: in vivo, 336 h.
Data set [9] has as its system 3T3-L1. In words: Inhibition of lipid accumulation in mouse 3T3-L1 cells at 1 to 20 uM incubated for 6 days by Oil Red O staining based spectrometric assay. It counts as functional, cell-based. The note with it: dose 1-20 µM, time 6.0 day.
Data set [10] relates to 3T3-L1. Briefly: Inhibition of lipid synthesis related gene expression in mouse 3T3-L1 cells assessed as reduction in MGAT1 expression at 20 uM incubated for 6 days by real-time PCR analysis. The note with it: time 6.0 day. In kind it is functional, cell-based. (In qPCR the cycle at which signal appears reflects the starting amount.)
Data set [11] deals with T1, Sterol O-acyltransferase 1 (Mus musculus) (UniProt Q61263).
T1 sequence (whole entry): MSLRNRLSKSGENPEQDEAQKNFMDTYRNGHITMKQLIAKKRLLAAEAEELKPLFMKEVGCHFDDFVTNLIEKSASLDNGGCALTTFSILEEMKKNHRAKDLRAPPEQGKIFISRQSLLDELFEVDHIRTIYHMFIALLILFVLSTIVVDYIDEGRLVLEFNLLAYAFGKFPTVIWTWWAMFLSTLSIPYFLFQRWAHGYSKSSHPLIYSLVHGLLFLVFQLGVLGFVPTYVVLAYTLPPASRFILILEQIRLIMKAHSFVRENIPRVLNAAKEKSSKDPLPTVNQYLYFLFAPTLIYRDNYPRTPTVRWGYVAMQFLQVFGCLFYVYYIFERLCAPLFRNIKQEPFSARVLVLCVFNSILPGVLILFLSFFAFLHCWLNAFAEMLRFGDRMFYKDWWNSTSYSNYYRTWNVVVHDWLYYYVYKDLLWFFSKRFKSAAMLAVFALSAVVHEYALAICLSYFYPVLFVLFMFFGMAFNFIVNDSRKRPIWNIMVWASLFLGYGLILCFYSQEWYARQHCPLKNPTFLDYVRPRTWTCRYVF
In words: Inhibition of ACAT in mouse 3T3-L1 cells assessed as reduction in accumulation of fluorescence-labeled CE by 25-NBD cholesterol based assay. In kind it is cell-based.

The subject of data set [12] is Mus musculus. In words: Anti-diabetic activity in high fat diet-fed C57BL/6J mouse model of obesity and diabetes assessed as reduction of white adipose tissue at 20 mg/kg, ip dosed daily for 2 weeks. In kind it is functional, organism-based.
Data set [13] relates to 3T3-L1. Briefly: Inhibition of lipid accumulation in mouse 3T3-L1 cells at 10 to 20 uM incubated for 6 days by CARS microscopy. It counts as functional, cell-based. The note with it: dose 10-20 µM, time 6.0 day.
Data set [14] deals with Mus musculus. In words: Anti-diabetic activity in high fat diet-fed C57BL/6J mouse model of obesity and diabetes assessed as reduction in food intake at 20 mg/kg, ip dosed daily for 8 days. In kind it is functional, organism-based. The note with it: time 8.0 day.
Data set [15] relates to 3T3-L1. In words: Inhibition of LD accumulation mouse 3T3-L1 cells using deuterium labeled glucose-d7 by SRS microscopy. It counts as functional, cell-based.
Data set [16] deals with 3T3-L1. Briefly: Inhibition of lipid synthesis related gene expression in mouse 3T3-L1 cells assessed as reduction in SCD1 expression at 20 uM incubated for 6 days by real-time PCR analysis. It counts as functional, cell-based. The note with it: time 6.0 day.
For data set [17], the system named is Mus musculus. Briefly: Anti-diabetic activity in high fat diet-fed C57BL/6J mouse model of obesity and diabetes assessed as reduction of white adipose tissue weight (epididymal adipose tissue ) at 20 mg/kg, ip dosed daily for 2 weeks. In kind it is functional, organism-based.
Data set [18] concerns Mus musculus. Briefly: Anti-diabetic activity in high fat diet-fed C57BL/6J mouse model of obesity and diabetes assessed as improvement in HOMA-IR levels at 20 mg/kg, ip dosed daily for 2 weeks. It counts as functional, organism-based.
Data set [19] deals with Mus musculus. Briefly: Effect on fecal energy content in high fat diet-fed C57BL/6J mouse model of obesity and diabetes at 20 mg/kg, ip dosed daily for 8 days. It counts as functional, organism-based. The note with it: time 8.0 day.
Data set [20] deals with Mus musculus. In words: Anti-diabetic activity in high fat diet-fed C57BL/6J mouse model of obesity and diabetes assessed as reduction in energy expenditure at 20 mg/kg, ip dosed daily for 2 weeks. It counts as functional, organism-based.
Data set [21] has as its system Mus musculus. In words: Anti-diabetic activity in high fat diet-fed C57BL/6J mouse model of obesity and diabetes assessed as improvement in blood lipid profile by measuring decrease in TG level at 20 mg/kg, ip dosed daily for 2 weeks. In kind it is functional, organism-based.
For data set [22], the system named is 3T3-L1. Briefly: Inhibition of cholesterol uptake related gene expression in mouse 3T3-L1 cells assessed as reduction in CD36 expression at 20 uM incubated for 6 days by real-time PCR analysis. It counts as functional, cell-based. The note with it: time 6.0 day.
Data set [23] concerns 3T3-L1. In words: Inhibition of cholesterol uptake related gene expression in mouse 3T3-L1 cells assessed as reduction in SR-B1 expression at 20 uM incubated for 6 days by real-time PCR analysis. It counts as functional, cell-based. The note with it: time 6.0 day.
For data set [24], the system named is Mus musculus. Briefly: Anti-diabetic activity in high fat diet-fed C57BL/6J mouse model of obesity and diabetes assessed as reduction of white adipose tissue weight (retroperitoneal adipose tissue ) at 20 mg/kg, ip dosed daily for 2 weeks. It counts as functional, organism-based.
Data set [25] relates to 3T3-L1. In words: Inhibition of lipid synthesis related gene expression in mouse 3T3-L1 cells assessed as reduction in SREBPlc expression at 20 uM incubated for 6 days by real-time PCR analysis. In kind it is functional, cell-based. The note with it: time 6.0 day.
Data set [26] deals with Mus musculus. Briefly: Anti-diabetic activity in high fat diet-fed C57BL/6J mouse model of obesity and diabetes assessed as reduction in serum leptin level at 20 mg/kg, ip dosed daily for 2 weeks. In kind it is functional, organism-based.
Data set [27] deals with Mus musculus. Briefly: Anti-diabetic activity in high fat diet-fed C57BL/6J mouse model of obesity and diabetes assessed as reduction in insulin levels at 20 mg/kg, ip dosed daily for 2 weeks. In kind it is functional, organism-based.
The subject of data set [28] is 3T3-L1. Briefly: Inhibition of lipid synthesis related gene expression in mouse 3T3-L1 cells assessed as reduction in DGAT2 expression at 20 uM incubated for 6 days by real-time PCR analysis. The note with it: time 6.0 day. In kind it is functional, cell-based.
Data set [29] concerns Mus musculus. In words: Anti-diabetic activity in high fat diet-fed C57BL/6J mouse model of obesity and diabetes assessed as improvement in blood lipid profile by measuring decrease in CE level at 20 mg/kg, ip dosed daily for 2 weeks. It counts as functional, organism-based.
For data set [30], the system named is 3T3-L1. Briefly: Effect on superoxide dismutase 1 in mouse 3T3-L1 cells at 10 uM dosed during day 2 to 6 and followed by drug replacement every 48 hrs by LC-MS/MS analysis based proteomic analysis. In kind it is functional. The note with it: time 4.0 day.
Data set [31] has as its system 3T3-L1. Briefly: Inhibition of lipid synthesis related gene expression in mouse 3T3-L1 cells assessed as reduction in PPARgamma expression at 20 uM incubated for 6 days by real-time PCR analysis. It counts as functional, cell-based. The note with it: time 6.0 day.
The subject of data set [32] is Mus musculus. In words: Anti-diabetic activity in high fat diet-fed C57BL/6J mouse model of obesity and diabetes assessed as reduction in blood glucose at 20 mg/kg, ip dosed daily for 2 weeks. It counts as functional, organism-based.
Data set [33] deals with Mus musculus. Briefly: Anti-diabetic activity in high fat diet-fed C57BL/6J mouse model of obesity and diabetes assessed as reduction in respiratory exchange ratio at 20 mg/kg, ip dosed daily for 2 weeks. In kind it is functional, organism-based.
Data set [34] relates to Mus musculus. Briefly: Anti-diabetic activity in high fat diet-fed C57BL/6J mouse model of obesity and diabetes assessed as reduction in food intake at 20 mg/kg, ip dosed daily for 2 weeks. In kind it is functional. Set-up: scale not given: the % may be the effect or the level left.
Data set [35] concerns 3T3-L1. Briefly: Inhibition of lipid accumulation in mouse 3T3-L1 cells at 1 to 20 uM incubated for 6 days by Oil Red O staining based spectrometric assay relative to control. In kind it is functional. The note with it: dose 1-20 µM, time 6 day.
Data set [36] has as its system 3T3-L1. In words: Effect on cytochrome B5 reductase 3 in mouse 3T3-L1 cells at 10 uM dosed during day 2 to 6 and followed by drug replacement every 48 hrs by LC-MS/MS analysis based proteomic analysis. In kind it is functional. The note with it: time 4.0 day.
For data set [37], the system named is Mus musculus. Briefly: Anti-diabetic activity in high fat diet-fed C57BL/6J mouse model of obesity and diabetes assessed as reduction of whole body fat mass at 20 mg/kg, ip dosed daily for 2 weeks. In kind it is functional, organism-based.
The test system of data set [38] is 3T3-L1. Briefly: Suppression of cholesterol levels in mouse 3T3-L1 cells. In kind it is functional, cell-based.
Data set [39] concerns Mus musculus. Briefly: Anti-diabetic activity in high fat diet-fed C57BL/6J mouse model of obesity and diabetes assessed as reduction in body weight at 20 mg/kg, ip dosed daily for 8 days. It counts as functional, organism-based. The note with it: time 8.0 day.

The structures appear in SMILES notation. The source made the active and inactive calls. The rule behind the calls is not given here.

Consider `CCCCCCCCCCC(C)(C)C(=O)Nc1c(OC)cc(OC)cc1OC`, for which the inhibition result with 3T3-L1 [1] was “Active”.
For the compound `CC(C)c1cc(C(C)C)c(CC(=O)NS(=O)(=O)Oc2c(C(C)C)cccc2C(C)C)c(C(C)C)c1` [AVASIMIBE], the inhibition result (in the data set on 3T3-L1 [2]; with 3T3-L1 [3]; in the data set with 3T3-L1 [10]; in [11]; in the data set on 3T3-L1 [13]; in the data set on 3T3-L1 [15]) was “Active” in each case. Further, the inhibition entry in the data set on 3T3-L1 [16], with 3T3-L1 [22], with 3T3-L1 [23], in the data set on 3T3-L1 [25], in the data set with 3T3-L1 [28] and in the data set with 3T3-L1 [31] was “Active” throughout. Besides, the inhibition result in the data set with 3T3-L1 [38] was “Active”. Moreover, the outcome in the data set with 3T3-L1 [4], in the data set on Mus musculus [5], in the data set with Mus musculus [6], in the data set with Mus musculus [12], in the data set with Mus musculus [14] and in the data set on Mus musculus [17] was Active. Besides, the result in the data set with Mus musculus [18], in the data set on Mus musculus [20], with Mus musculus [21], with Mus musculus [24], in the data set on Mus musculus [26] and in the data set on Mus musculus [27] was Active. Also, the outcome in the data set on Mus musculus [29], in the data set on Mus musculus [32], in the data set on Mus musculus [33], in the data set with Mus musculus [37] and in the data set with Mus musculus [39] was Active. Further, the Activity in the data set with Mus musculus [7] is 25%; in data set [8] it was “Non-Toxic”; in the data set with Mus musculus [34], 50%. In the data set on 3T3-L1 [9], the inhibition result was “Dose-dependent effect”. The outcome with Mus musculus [19], with 3T3-L1 [30] and with 3T3-L1 [36] was inactive. Besides, the “inhibition (INH)” value in the data set on 3T3-L1 [35] is “<=60%”.
